Data taken from US8324264B1, “Inhibitors of bacterial biofilms and related methods” (Sequoia Sciences, Inc., priority 2011, dated 2012).
≈ marks a conversion by molar mass, not a printed value. Read-outs that look alike come from different tables or passages of the source.

Legend:
P. aeruginosa biofilms = assay: Biofilm growth assay (spreading biofilm on semi-solid agar), P. aeruginosa; assay type: cell-based; conditions: for IC85: Pseudomonas aeruginosa, read-out: P. aeruginosa: concentration that reduces the area of the spreading biofilm by greater than or equal to 85%
Excerpt: (§1) “Biofilm Growth Assay” refers to an assay performed on semi-solid agar surface where the bacteria collectively move out from an inoculation point. To those skilled in the art, the act of bacteria collectively moving out from an inoculation point on a semi-solid surface may be referred to as swarming or a spreading biofilm. (Anderson, et al Microbiology, 2003, 149, 37-46; Daniels, et al. FEMS Microbiology Reviews, 2004, 28, 261-289). The procedure to perform this assay is described in detail in the Examples. This type of surface motility by bacteria has been reported in the literature by those skilled in the art. […] These references are incorporated herein by reference in their entirety.
(§2) The biofilm growth assay was carried out to measure swarming or biofilm spreading on semi-solid agar media in round plates (for example, 100×15 mm), also referred to as Petri dishes. For E. coli, the plates contained LB medium with 0.6% agar and 0.5% glucose. P. aeruginosa plates were made with M8 agar supplemented with 0.2% glucose, 100 μM CaCl2, 1 mM MgSO4, and 0.5% Casamino acids. The agar plates of this assay consisted of 0.4% to 0.7% agar (Bacto or Noble agar), although other media may also be used as described in the literature and known to those skilled in the art. Test compounds at the desired concentration were added to the cooled, autoclaved media. Portions of the media were then poured into the plates (20 mL/plate), and the plates allowed to dry at room temperature for approximately 3 to 4 hours. Alternatively, however, plates may be dried in a laminar flow hood for approximately fifteen to twenty minutes. Overnight cultures were grown in a 37° C. shaker in LB (E. coli) or TSB (P. aeruginosa). Plates were inoculated by placing 5 μL of the appropriate overnight culture in the centers of the plates. The plates then were incubated overnight at 37° C. The area of the zone of spreading bacteria was then measured and replicates are averaged. Percent inhibition was calculated as 100×(area without compound−area with compound)/(area without compound). An active compound was considered that which reduces the area of the spreading biofilm compared to negative controls by greater than or equal to 85%. The values shown in Table 1 are the concentrations of compounds (μg/ml) tested in the biofilm growth assay that reduce the area of the spreading biofilm compared to negative controls by greater than or equal to 85% unless noted differently in Table 1. A > (“greater than” symbol) as used in Table 1 is well understood to those skilled in the art as an indication that the listed concentration was not effective at this concentration.
(§3) All of the compounds shown in Tables 2, 3, 4, and 5, below, were prepared semi-synthetically from oleanolic acid, except for Compounds 2 and 3. Compound 2 was prepared from ursolic acid. Compound 3 was prepared from hederagenin, but could also be prepared from an oleanolic acid analog with a hydroxyl at C23 or C24. These compounds were tested in the spreading biofilm assay according to the methods detailed in Example I, above. The values shown in Tables 2, 3, 4, and 5 are the concentrations of compounds tested in the biofilm growth assay that reduce the area of the spreading biofilm compared to negative controls by greater than or equal to 85%.

E. coli biofilms = assay: Biofilm growth assay (spreading biofilm on semi-solid agar), E. coli; assay type: cell-based; conditions: biofilm growth assay, overnight 37° C., vs negative controls, Tables 1-5; for IC85: Escherichia coli, read-out: E. coli: concentration that reduces the area of the spreading biofilm by greater than or equal to 85%
Excerpt: as §1, §2, §3

[1] = biofilm growth assay, overnight 37° C., vs negative controls, Tables 1-5

Structure (SMILES) | P. aeruginosa: concentration that reduces the area of the spreading biofilm by greater than or equal to 85% (P. aeruginosa biofilms; [1]) [µg/mL] | E. coli: concentration that reduces the area of the spreading biofilm by greater than or equal to 85% (E. coli biofilms) [µg/mL] | IC85 (P. aeruginosa biofilms; [1]) [µg/mL] | IC85 (E. coli biofilms) [µg/mL] | IC85 (P. aeruginosa biofilms) [µg/mL]
CC1(C)CC[C@]2(C(=O)O)CC[C@]3(C)C(=C(c4coc(CN5CCNCC5)c4)CC4[C@@]5(C)Cc6c(n[nH]c6N)C(C)(C)C5CC[C@]43C)C2C1 (stereo partly drawn) [Example 39, (4aS,6aS,6bR,13aR)-12-Amino-2,2,6a,6b,9,9,13a-heptamethyl-15-(5-(piperazin-1-ylmethyl)furan-3-yl)-2,3,4,4a,5,6,6a,6b,7,8,8a,9,11,13,13a,13b,14,15b-octadecahydro-1H-chryseno[1,2-f]indazole-4-a-carboxylic acid] | 1 | 2 | – | – | –
CC1(C)CC[C@]2(C(=O)Nc3nnc(S)s3)CC[C@]3(C)C(=CCC4[C@@]5(C)Cc6c(n[nH]c6N)C(C)(C)C5CC[C@]43C)C2C1 (stereo partly drawn) [Compound 74, (4aS,6aS,6bR,13aR)-12-Amino-N-(5-mercapto-1,3,4-thiadiazol-2-yl)-2,2,6a,6b,9,9,13a-heptamethyl-2,3,4,4a,5,6,6a,6b,7,8,8a,9,11,13,13a,13b,14,15b-octadecahydro-1H-chryseno[1,2-f]indazole-4-a-carboxamide] | – | – | 1 (≈ 1.64 µM) | > 2 | –
CNCCc1c([C@]23CCC(C)(C)CC2C2=CCC4[C@@]5(C)Cc6c(n[nH]c6N)C(C)(C)C5CC[C@@]4(C)[C@]2(C)CC3)n[nH]c1O (stereo partly drawn) [Compound 86, 3-((4aS,6aS,6bR,13aR)-12-Amino-2,2,6a,6b,9,9,13a-heptamethyl-2,3,4,4a,5,6,6a,6b,7,8,8a,9,11,13,13a,13b,14,15b-octadecahydro-1H-chryseno[1,2-f]indazol-4-a-yl)-4-(2-(methylamino)ethyl)-1H-pyrazol-5-ol] | 0.5 | 2 | – | – | –
CC1(C)CC[C@]2(CN)CC[C@]3(C)C(=CCC4[C@@]5(C)Cc6c(n[nH]c6N)C(C)(C)C5CC[C@]43C)C2C1 (stereo partly drawn) [Compound 63, (4aS,6aS,6bR,13aR)-4-a-(Aminomethyl)-2,2,6a,6b,9,9,13a-heptamethyl-2,3,4,4a,5,6,6a,6b,7,8,8a,9,11,13,13a,13b,14,15b-octadecahydro-1H-chryseno[1,2-f]indazol-12-amine] | – | – | 4 (≈ 8.35 µM) | 1 (≈ 2.09 µM) | –
CC1(C)CC[C@]2(c3cc(O)[nH]n3)CC[C@]3(C)C(=CCC4[C@@]5(C)Cc6c(n[nH]c6N)C(C)(C)[C@@H]5CC[C@]43C)[C@@H]2C1 (stereo partly drawn) [Compound 68, 3-((4aS,6aS,6bR,13aR)-12-Amino-2,2,6a,6b,9,9,13a-heptamethyl-2,3,4,4a,5,6,6a,6b,7,8,8a,9,11,13,13a,13b,14,15b-octadecahydro-1H-chryseno[1,2-f]indazol-4-a-yl)-1H-pyrazol-5-ol] | – | – | 0.5 (≈ 0.94 µM) | 0.5 (≈ 0.94 µM) | –
CC1(C)CC[C@]2(C(=O)n3cnc(S)n3)CC[C@]3(C)C(=CCC4[C@@]5(C)Cc6c(n[nH]c6N)C(C)(C)C5CC[C@]43C)C2C1 (stereo partly drawn) [Compound 76, ((4aS,6aS,6bR,13aR)-12-Amino-2,2,6a,6b,9,9,13a-heptamethyl-2,3,4,4a,5,6,6a,6b,7,8,8a,9,11,13,13a,13b,14,15b-octadecahydro-1H-chryseno[1,2-f]indazol-4-a-yl)(3-mercapto-1H-1,2,4-triazol-1-yl)methanone] | – | – | 0.5 (≈ 0.867 µM) | 2 (≈ 3.47 µM) | –
CC1(C)CC[C@]2(C(=O)O)CC[C@]3(C)C(=C(c4c[nH]cc4CN4CCOCC4)CC4[C@@]5(C)Cc6c(n[nH]c6N)C(C)(C)[C@@H]5CC[C@]43C)[C@@H]2C1 (stereo partly drawn) [Example 33, (4aS,6aS,6bR,8aR,13aR,15bS)-12-Amino-2,2,6a,6b,9,9,13a-heptamethyl-15-(4-(morpholinomethyl)-1H-pyrrol-3-yl)-2,3,4,4a,5,6,6a,6b,7,8,8a,9,11,13,13a,13b,14,15b-octadecahydro-1H-chryseno[1,2-f]indazole-4-a-carboxylic acid] | 2 | 4 | – | – | –
C[C@@H]1CC[C@]2(C(=O)O)CC[C@]3(C)C(=CCC4[C@@]5(C)C[C@H](CO)[C@H](O)C(C)(C)C5CC[C@]43C)C2[C@H]1C (stereo partly drawn) [A] | – | – | 8 (≈ 16.4 µM) | > 8 | –
CNc1[nH]nc2c1C[C@@]1(C)C(CC[C@]3(C)C1CC=C1C4CC(C)(C)CC[C@]4(C(=O)O)CC[C@]13C)C2(C)C (stereo partly drawn) [I] | – | – | > 16 | 8 (≈ 15.8 µM) | –
CC1(C)CC[C@]2(C(=O)O)CC[C@]3(C)C(=CCC4[C@@]5(C)Cc6c[nH]nc6C(C)(C)C5CC[C@]43C)C2C1 (stereo partly drawn) [D] | – | – | 1 (≈ 2.09 µM) | 4 (≈ 8.36 µM) | –
C[C@@H]1c2n[nH]c(N)c2C[C@]2(C)C3CC=C4[C@@H]5CC(C)(C)CC[C@]5(C(=O)O)CC[C@@]4(C)[C@]3(C)CC[C@@H]12 (stereo partly drawn) [Example 3, (4aS,6aS,6bR,8aS,9S,13aS,15bS)-12-Amino-2,2,6a,6b,9,13a-hexamethyl-2,3,4,4a,5,6,6a,6b,7,8,8a,9,11,13,13a,13b,14,15b-octadecahydro-1H-chryseno[1,2-f]indazole-4-a-carboxylic acid] | – | – | 0.5 (≈ 1.04 µM) | 1 (≈ 2.08 µM) | –
CC1(C)CC[C@]2(c3cc(N)[nH]n3)CC[C@]3(C)C(=CCC4[C@@]5(C)Cc6c(n[nH]c6N)C(C)(C)C5CC[C@]43C)C2C1 (stereo partly drawn) [Compound 60, (4aS,6aS,6bR,13aR)-4-a-(5-Amino-1H-pyrazol-3-yl)-2,2,6a,6b,9,9,13a-heptamethyl-2,3,4,4a,5,6,6a,6b,7,8,8a,9,11,13,13a,13b,14,15b-octadecahydro-1H-chryseno[1,2-f]indazol-12-amine] | 0.5 | 1 | – | – | –
CN1CCN(c2ccc(C3=C4C5CC(C)(C)CC[C@]5(C(=O)O)CC[C@@]4(C)[C@]4(C)CCC5C(C)(C)c6n[nH]c(N)c6C[C@]5(C)C4C3)cn2)CC1 (stereo partly drawn) [Example 56, (4aS,6aS,6bR,13aR)-12-Amino-2,2,6a,6b,9,9,13a-heptamethyl-15-(6-(4-methylpiperazin-1-yl)pyridin-3-yl)-2,3,4,4a,5,6,6a,6b,7,8,8a,9,11,13,13a,13b,14,15b-octadecahydro-1H-chryseno[1,2-f]indazole-4-a-carboxylic acid] | 1 | 2 | – | – | –
C[C@@H]1CC[C@]2(C)CC[C@]3(C)C(=CCC4[C@@]5(C)CC[C@H](O)C(C)(C)C5CC[C@]43C)C2[C@H]1C (stereo partly drawn) [alpha-Amyrin, reference compound] | – | – | > 32 | – | –
CC1(C)CC[C@]2(C(=O)O)CC[C@]3(C)C(=CCC4[C@@]5(C)Cc6c(n[nH]c6Br)C(C)(C)C5CC[C@]43C)C2C1 (stereo partly drawn) [H] | – | – | 8 (≈ 14.3 µM) | > 8 | –
CC1(C)CC[C@]2(C(=O)O)CC[C@]3(C)C(=C(c4ccc(CN5CCOCC5)cc4)CC4[C@@]5(C)Cc6c(n[nH]c6N)C(C)(C)C5CC[C@]43C)C2C1 (stereo partly drawn) [Example 52, (4aS,6aS,6bR,13aR)-12-Amino-2,2,6a,6b,9,9,13a-heptamethyl-15-(4-(morpholinomethyl)phenyl)-2,3,4,4a,5,6,6a,6b,7,8,8a,9,11,13,13a,13b,14,15b-octadecahydro-1H-chryseno[1,2-f]indazole-4-a-carboxylic acid] | 1 | 2 | – | – | –
C[C@H]1[C@H](C)CC[C@]2(C(=O)O)CC[C@]3(C)C(=CC[C@@H]4[C@@]5(C)C[C@@H](O)[C@H](O)C(C)(C)[C@@H]5CC[C@]43C)[C@H]12 [Corosolic acid, reference compound] | – | – | 4 (≈ 8.46 µM) | – | –
CC1(C)CC[C@]2(C(=O)O)CC[C@]3(C)C(=CC[C@@H]4[C@@]5(C)C[C@@H](O)[C@H](O)C(C)(C)[C@@H]5CC[C@]43C)[C@@H]2C1 [Maslinic acid, reference compound] | – | – | – | – | 4 (≈ 8.46 µM)
